According to US6340677B1, “Method of evaluation of skin conditioning-ameliorating agents and method of producing compositions for topical application to skin” (Pola Chemical Industries, Inc., priority 1997, dated 2002):

Tested on: mouse photo-aging model
Assay: degree of order of dermis collagen fiber bundle in the mouse photo-aging model (score 0 to 3 from electron microphotographs)
Assay type: in vivo, hairless mice (Skh: HR-1)
Settings: 0.05% solution in ethanol
Experimental: Five groups of hairless mice (Skh: HR-1,female, 8-week-old), each group comprising six mice, were prepared. A part of skin and replica of skin surface morphology were excised from each mouse of one group of them when they were 8 weeks old without the following ultraviolet light irradiation, namely in-the state of before the ultraviolet light irradiation. About the remaining four groups, each mouse was irradiated with ultraviolet light B (Toshiba SE lamp, 60 mJ/cm^2) once per day for 5 days a week and fed up. The irradiation of the ultraviolet light to one group among the four groups described-above was stopped after one week of the initiation of the irradiation and at this time a part of skin and replica of skin surface morphology were excised from each mouse of the group. As the same manner, the irradiation of the ultraviolet light to the another group and to the further another group were stopped after two and five weeks of the initiation of the irradiation and then a part of skin and replica of skin surface morphology were excised from each mouse of the groups respectively. The irradiation of the ultraviolet light to the last group was continued to 10 weeks after initiation of the irradiation to prepare the mouse photo-aging models. Thus the total amount of the ultraviolet light irradiated to the mouse photo-aging models was 3J/cm^2. A part of skin and replica of skin surface morphology were also excised from each mouse photo-aging model obtained above. […] Each of the solution was given in an amount of 0.05 ml once a day for consecutive 8 weeks. After completion of the application, a part of the skin was excised from each mouse to take photographs of its surface morphology under scanning electron microscope. […] Evaluation was carried out using the value calculated by dividing the degree of order of the dermis collagen fiber bundle measured by the above method after the application by that before the application.

## C[C@@H]1C[C@H]2[C@@H]3CCC4=CC(=O)C=C[C@]4(C)[C@@]3(F)[C@@H](O)C[C@]2(C)[C@@]1(O)C(=O)CO [dexamethasone]
0.05 ml once a day for consecutive 8 weeks, five mice, score 0 to 3, 2,500 magnification, before application 0.82
  average of the scores of the degree of order of dermis collagen fiber bundle: 1.71
8 weeks, 1.71/0.78
  degree of amelioration of skin conditions (average score of treated group / average score of ethanol-applied group): 2.28
8 weeks, 1.71/0.82
  degree of amelioration of skin conditions (score after application / score before application): 2.09
